Experimental data: patent US20160122406A1, “ANALOGS OF PITUITARY ADENYLATE CYCLASE-ACTIVATING POLYPEPTIDE (PACAP) AND METHODS FOR THEIR USE” (THE ADMINISTRATORS OF THE TULANE EDUCATIONAL FUND, priority 2013, published 2016)
“Also recorded” adds a separate entry of the source. Read-outs that look alike come from different tables or passages of the source.

Assays:
rat = settings: 48 hours after start, cited from earlier work
Male C57BL/6 mice = assay: Cisplatin-induced nephrotoxicity in mice; format: in vivo
Description: (§1) Male C57BL/6 mice were given a single intraperitoneal injection of 20 mg/kg of cisplatin. Twenty micrograms of PACAP38 were given intraperitoneally 1 hour before the injection of cisplatin and additional doses were given at 24 and 48 hours after the initial dose. The control group of mice was injected intraperitoneally with the same volume of saline as for the injections of cisplatin and PACAP38 on the same schedule. The mice were euthanized 24 hours after the final injection of PACAP38. The serum creatinine levels were determined at sacrifice with isotope dilution liquid chromatography mass spectroscopy/mass spectroscopy. Each value represents the mean plus/minus the standard error of eight determinations. ** p<0.01 compared to the group treated only with cisplatin.
as §1, with “cystatin C” for “creatinine”, “commercial ELISA kits.” for “isotope dilution liquid chromatography mass spectroscopy/mass spectroscopy.”
as §1, with “body weights of the mice” for “serum creatinine levels”, “determined 1-2 hours before the first injection of PACAP38 and” for “determined”, “sacrifice.” for “sacrifice with isotope dilution liquid chromatography mass spectroscopy/mass spectroscopy.”, “p<0.01 and * p<0.05” for “p<0.01”
as §1, with “kidney” for “serum creatinine”, “levels of TNF-α” for “levels”, “commercial ELISA kits.” for “isotope dilution liquid chromatography mass spectroscopy/mass spectroscopy.”
as §1, with “kidney” for “serum creatinine”, “levels of IFN-γ” for “levels”, “commercial ELISA kits.” for “isotope dilution liquid chromatography mass spectroscopy/mass spectroscopy.”, “p<0.01 and * p<0.05” for “p<0.01”
Male C57BL/6 mice were given a single intraperitoneal injection of 20 mg/kg of cisplatin. Twenty micrograms of PACAP38 were given intraperitoneally 1 hour before the injection of cisplatin and additional doses were given at 24 and 48 hours after the initial dose. […]

[1] = rat, in vivo, iv; cited from earlier work
[2] = cisplatin 20 mg/kg i.p., 20 micrograms peptide i.p. 1 h before and 24 and 48 h after, ELISA at sacrifice

Substance: PACAP38: native human pituitary adenylate cyclase-activating polypeptide, α-amidated peptide with 38 amino acids
- reduction of the infarct volume (rat; continuous i.v. infusion beginning 4 hours after start of 2-h MCAO): approximately 51%
- reduction of the infarct volume (rat; continuous i.v. infusion beginning 8 hours after start of 2-h MCAO): ~22%
- reduction of the infarct volume (rat; continuous i.v. infusion beginning 12 hours after start of 2-h MCAO): ~12%
- cytoprotection against cisplatin-induced nephrotoxicity / kidney injury (Male C57BL/6 mice; PACAP38 compared with [Iac1]PACAP38): approximately equipotent; also recorded: potent cytoprotectants
- cisplatin-induced increase in kidney levels of interferon γ (IFN-γ) (Male C57BL/6 mice; [2]): reduction
- cisplatin-induced increase in kidney levels of monocyte chemotactic protein 1 (MCP-1, CCL2) (Male C57BL/6 mice; [2]): reduction
- cisplatin-induced increase in kidney levels of tumor necrosis factor-α (TNF-α) (Male C57BL/6 mice; [2]): reduction
- cisplatin-induced increase in serum cystatin C levels (Male C57BL/6 mice; [2]): reduction
- cisplatin-induced body weight loss (Male C57BL/6 mice; cisplatin 20 mg/kg i.p., 20 micrograms peptide i.p. 1 h before and 24 and 48 h after, at sacrifice): reduction; also recorded: significantly reversed the weight lost
- cisplatin-induced increase in serum creatinine levels (Male C57BL/6 mice; cisplatin 20 mg/kg i.p., 20 micrograms peptide i.p. 1 h before and 24 and 48 h after, at sacrifice 24 h after final injection): reduction
- kidney function of cisplatin-injected mice (Male C57BL/6 mice; summary of FIGS. 3 and 4): significantly restored kidney function
- inflammatory response in the kidney of cisplatin-injected mice (Male C57BL/6 mice; summary of FIGS. 6-8 (TNF-α, IFN-γ, MCP-1)): significantly blunted the inflammatory response

Substance: [^125I]-PACAP38: 125I-radiolabelled PACAP38 used for half-life in rats
- half-life in the bloodstream [1]: 5 to 6 min
